In patent US8648191B2, “Cyclohexyloxy substituted heterocycles, pharmaceutical compositions containing these compounds and processes for preparing them” (Boehringer Ingelheim International GmbH, priority 2008, dated 2014):

Target: T1, human EGF-R (Homo sapiens, UniProt P00533)
T1 construct: expressed in transfected cells
Test: Inhibition of the EGFR-dependent proliferation of a murine haematopoietic cell line expressing human EGF-R, stimulated with EGF
Assay type: cell-based
Details: 20 ng/ml human EGF, 48 hours at 37° C., Cell Titer 96 AQueous assay
Procedure: A murine haematopoietic cell line is genetically modified so as to express functional human EGF-R. The proliferation of this cell line can therefore be stimulated by EGF.
The test is carried out as follows:
The cells are cultivated in RPMI/1640 medium. The proliferation is stimulated with 20 ng/ml of human EGF (Promega). To investigate the inhibitory activity of the compounds according to the invention these compounds are dissolved in 100% dimethylsulphoxide (DMSO) and added to the cultures in various dilutions, the maximum DMSO concentration being 1%. The cultures are incubated for 48 hours at 37° C.
In order to determine the inhibitory activity of the compounds according to the invention the relative cell number is measured in O.D. Units using the Cell Titer 96™ AQueous Non-Radioactive Cell Proliferation Assay (Promega). The relative cell number is calculated as a percentage of the control and the concentration of active substance which inhibits the proliferation of the cells by 50% (IC50) is derived therefrom.

T1 sequence (P00533 25-1210): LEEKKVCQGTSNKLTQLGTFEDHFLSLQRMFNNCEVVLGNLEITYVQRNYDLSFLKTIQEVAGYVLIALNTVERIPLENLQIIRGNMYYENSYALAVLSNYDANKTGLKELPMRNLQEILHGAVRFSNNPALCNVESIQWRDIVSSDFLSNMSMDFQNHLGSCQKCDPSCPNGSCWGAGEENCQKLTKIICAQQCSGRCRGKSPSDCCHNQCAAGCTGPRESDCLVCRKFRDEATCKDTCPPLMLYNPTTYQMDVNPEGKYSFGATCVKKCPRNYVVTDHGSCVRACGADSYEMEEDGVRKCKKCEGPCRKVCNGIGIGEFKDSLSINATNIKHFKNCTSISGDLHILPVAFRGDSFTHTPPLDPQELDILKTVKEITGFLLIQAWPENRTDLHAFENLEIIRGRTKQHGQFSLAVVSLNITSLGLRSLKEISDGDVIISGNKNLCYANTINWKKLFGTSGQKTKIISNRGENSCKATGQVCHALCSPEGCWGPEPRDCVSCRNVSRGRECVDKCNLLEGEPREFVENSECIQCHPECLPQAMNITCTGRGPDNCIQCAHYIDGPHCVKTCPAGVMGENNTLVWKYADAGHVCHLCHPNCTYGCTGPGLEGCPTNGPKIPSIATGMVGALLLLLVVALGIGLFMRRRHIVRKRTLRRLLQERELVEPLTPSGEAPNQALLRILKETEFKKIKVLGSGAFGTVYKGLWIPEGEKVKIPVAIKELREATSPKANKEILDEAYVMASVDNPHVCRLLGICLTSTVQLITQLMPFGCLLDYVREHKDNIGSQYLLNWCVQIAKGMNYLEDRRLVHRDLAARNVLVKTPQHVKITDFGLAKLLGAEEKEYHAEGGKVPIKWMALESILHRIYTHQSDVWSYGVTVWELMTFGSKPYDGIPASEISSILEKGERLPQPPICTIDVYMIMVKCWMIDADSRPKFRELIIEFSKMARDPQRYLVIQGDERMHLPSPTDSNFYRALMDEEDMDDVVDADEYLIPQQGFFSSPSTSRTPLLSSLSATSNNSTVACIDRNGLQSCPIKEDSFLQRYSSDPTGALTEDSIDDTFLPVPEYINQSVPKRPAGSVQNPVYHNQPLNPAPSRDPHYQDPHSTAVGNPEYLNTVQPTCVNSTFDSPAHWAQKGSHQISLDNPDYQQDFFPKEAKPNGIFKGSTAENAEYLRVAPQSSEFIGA

Compound | IC50
COc1cc2ncnc(Nc3cccc(Cl)c3F)c2cc1O[C@H]1CC[C@H]([C@@H]2NCCN(C)C2=O)CC1 [1(2), trans-(S)-3-{4-[4-(3-chloro-2-fluoro-phenylamino)-7-methoxy-quinazolin-6-yloxy]-cyclohexyl}-1-methyl-piperazin-2-one] | 1 nM
COc1cc2ncnc(Nc3cccc(Cl)c3F)c2cc1O[C@H]1CC[C@@H]([C@@H]2NCCNC2=O)CC1 [1(1a), cis-(S)-3-{4-[4-(3-chloro-2-fluoro-phenylamino)-7-methoxy-quinazolin-6-yloxy]-cyclohexyl}-piperazin-2-one] | 10 nM
COc1cc2ncnc(Nc3cccc(Cl)c3F)c2cc1O[C@H]1CC[C@H]([C@@H]2NCCNC2=O)CC1 [1(1b), trans-(S)-3-{4-[4-(3-chloro-2-fluoro-phenylamino)-7-methoxy-quinazolin-6-yloxy]-cyclohexyl}-piperazin-2-one] | 1.4 nM

Now from value to molecule:

IC50 | Compound
1.6 nM | COc1cc2ncnc(Nc3cccc(Cl)c3F)c2cc1O[C@H]1CC[C@H]([C@H]2NCCNC2=O)CC1 [1(5), trans-(R)-3-{4-[4-(3-chloro-2-fluoro-phenylamino)-7-methoxy-quinazolin-6-yloxy]-cyclohexyl}-piperazin-2-one]
1 nM | COc1cc2ncnc(Nc3cccc(Cl)c3F)c2cc1OC1CCC([C@H]2C(=O)N(C)CCN2C)CC1 (mixture of isomers) [1(3), cis/trans-(S)-3-{4-[4-(3-chloro-2-fluoro-phenylamino)-7-methoxy-quinazolin-6-yloxy]-cyclohexyl}-1,4-dimethyl-piperazin-2-one]
1 nM | COc1cc2ncnc(Nc3cccc(Cl)c3F)c2cc1OC1CCC([C@H]2C(=O)NCCN2C)CC1 (mixture of isomers) [Example 1, cis/trans-(S)-3-{-4-[4-(3-chloro-2-fluoro-phenylamino)-7-methoxy-quinazolin-6-yloxy]-cyclohexyl}-4-methyl-piperazin-2-one]
12.5 nM | COc1cc2ncnc(Nc3cccc(Cl)c3F)c2cc1O[C@H]1CC[C@@H]([C@H]2NCCNC2=O)CC1 [1(4), cis-(R)-3-{4-[4-(3-chloro-2-fluoro-phenylamino)-7-methoxy-quinazolin-6-yloxy]-cyclohexyl}-piperazin-2-one]
